From PubChem BioAssay AID2060502 (Molecular Pharmacology Branch, DTP, NCI, 2025)

System: 885724-159-R-J1-PDC complex spheroid viability
Experiment: Anticancer human tumor 885724-159-R-J1-PDC patient-derived pancreatic adenocarcinoma cell line growth inhibition [GQUAD]
Settings: for IC50: curve of first compound; for viability, T/C: stronger effect = lower value
Outline: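 Multi-cell-type spheroids of tumor cells with HUVEC and mesenchymal stem cells, treated with drug combinations. Concentrations descend in half-log steps from near clinical Cmax, or from 10 microM where Cmax is unknown; viability read-out.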

[1] = second compound 0.0316 µM, first compound 0.0316 µM
[2] = second compound 0.0316 µM, first compound 0.1 µM
[3] = second compound 0.0316 µM, first compound 0.316 µM
[4] = second compound 0.0316 µM, first compound 1 µM
[5] = second compound 0.0316 µM, first compound 3.16 µM
[6] = second compound 0.0316 µM, first compound 10 µM
[7] = second compound 0.1 µM, first compound 0.0316 µM
[8] = second compound 0.1 µM, first compound 0.1 µM
[9] = second compound 0.1 µM, first compound 0.316 µM
[10] = second compound 0.1 µM, first compound 1 µM
[11] = second compound 0.1 µM, first compound 3.16 µM
[12] = second compound 0.1 µM, first compound 10 µM
[13] = second compound 0.316 µM, first compound 0.0316 µM
[14] = second compound 0.316 µM, first compound 0.1 µM
[15] = second compound 0.316 µM, first compound 0.316 µM
[16] = second compound 0.316 µM, first compound 1 µM
[17] = second compound 0.316 µM, first compound 3.16 µM
[18] = second compound 0.316 µM, first compound 10 µM
[19] = second compound 1 µM, first compound 0.0316 µM
[20] = second compound 1 µM, first compound 0.1 µM
[21] = second compound 1 µM, first compound 0.316 µM
[22] = second compound 1 µM, first compound 1 µM
[23] = second compound 1 µM, first compound 3.16 µM
[24] = second compound 1 µM, first compound 10 µM
[25] = second compound 3.16 µM, first compound 0.0316 µM
[26] = second compound 3.16 µM, first compound 0.1 µM
[27] = second compound 3.16 µM, first compound 0.316 µM
[28] = second compound 3.16 µM, first compound 1 µM
[29] = second compound 3.16 µM, first compound 3.16 µM
[30] = second compound 3.16 µM, first compound 10 µM
[31] = second compound 10 µM, first compound 0.0316 µM
[32] = second compound 10 µM, first compound 0.1 µM
[33] = second compound 10 µM, first compound 0.316 µM
[34] = second compound 10 µM, first compound 1 µM
[35] = second compound 10 µM, first compound 3.16 µM
[36] = second compound 10 µM, first compound 10 µM
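Also: spheroids exposed to agents for seven days before readout.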
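For viability, T/C in this document: percent of vehicle control viability where 100% = DMSO wells.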

CC(C)(O)C1CCC(Nc2ccc3ncc(-c4cccc(C(F)(F)F)c4)n3n2)CC1 (centres undefined) + CN(C)c1ccc(Nc2c3ccc(NC(=O)CCN4CCCC4)cc3nc3cc(NC(=O)CCN4CCCC4)ccc23)cc1
IC50 (second compound 0.0316 µM): 2730 nM | IC50 (second compound 0.1 µM): 3140 nM | IC50 (second compound 0.316 µM): 1880 nM | IC50 (second compound 1 µM): 1620 nM | IC50 (second compound 3.16 µM): 764 nM | IC50 (second compound 10 µM): 1190 nM | viability, T/C [1]: 109% | viability, T/C [2]: 98% | viability, T/C [3]: 87% | viability, T/C [4]: 70.5% | viability, T/C [5]: 42.1% | viability, T/C [6]: 41.2% | viability, T/C [7]: 97.7% | viability, T/C [8]: 92.8% | viability, T/C [9]: 80.3% | viability, T/C [10]: 71.2% | viability, T/C [11]: 44.8% | viability, T/C [12]: 44.1% | viability, T/C [13]: 83.7% | viability, T/C [14]: 84.2% | viability, T/C [15]: 71.6% | viability, T/C [16]: 64.1% | viability, T/C [17]: 38% | viability, T/C [18]: 35.7% | viability, T/C [19]: 83.6% | viability, T/C [20]: 67.9% | viability, T/C [21]: 71.1% | viability, T/C [22]: 62.3% | viability, T/C [23]: 30.5% | viability, T/C [24]: 35.6% | viability, T/C [25]: 76.1% | viability, T/C [26]: 75.6% | viability, T/C [27]: 65.9% | viability, T/C [28]: 44.5% | viability, T/C [29]: 27.9% | viability, T/C [30]: 19.3% | viability, T/C [31]: 62% | viability, T/C [32]: 63.5% | viability, T/C [33]: 57.3% | viability, T/C [34]: 55.7% | viability, T/C [35]: 20.6% | viability, T/C [36]: 7.17%

CC1COCCN1c1cc(C2(O)CC3CCC(C2)O3)c2cnn(-c3ccn[nH]3)c2n1 (centres undefined) + Cc1[nH]c2ccc(F)cc2c1-c1nc2c3cccnc3c3ncccc3c2[nH]1
IC50 (second compound 0.0316 µM): 1890 nM | IC50 (second compound 0.1 µM): 1200 nM | IC50 (second compound 0.316 µM): 865 nM | IC50 (second compound 1 µM): 432 nM | IC50 (second compound 3.16 µM): < 31.6 nM | IC50 (second compound 10 µM): 512 nM | viability, T/C [1]: 97.7% | viability, T/C [2]: 77.5% | viability, T/C [3]: 68.3% | viability, T/C [4]: 55.2% | viability, T/C [5]: 46% | viability, T/C [6]: 37.8% | viability, T/C [7]: 96.6% | viability, T/C [8]: 88% | viability, T/C [9]: 74.1% | viability, T/C [10]: 50.1% | viability, T/C [11]: 42.7% | viability, T/C [12]: 37.7% | viability, T/C [13]: 91% | viability, T/C [14]: 79% | viability, T/C [15]: 62.4% | viability, T/C [16]: 47.3% | viability, T/C [17]: 41.6% | viability, T/C [18]: 35.5% | viability, T/C [19]: 79.5% | viability, T/C [20]: 66% | viability, T/C [21]: 54.2% | viability, T/C [22]: 38.1% | viability, T/C [23]: 37.4% | viability, T/C [24]: 25.4% | viability, T/C [25]: 41.2% | viability, T/C [26]: 29.9% | viability, T/C [27]: 41.1% | viability, T/C [28]: 22.6% | viability, T/C [29]: 20.1% | viability, T/C [30]: 8.51% | viability, T/C [31]: 69.6% | viability, T/C [32]: 69% | viability, T/C [33]: 51% | viability, T/C [34]: 44.4% | viability, T/C [35]: 33.1% | viability, T/C [36]: 24.1%
